Results on four molecules are retold here after patent US9938260B2, “Soluble guanylate cyclase activators and their use” (GlaxoSmithKline Intellectual Property Development Limited, priority 2014, dated 2018).

Where a name gives a salt, the structure may show the parent alone.

The assay has as its target T1, soluble guanylate cyclase (sGC) (Rattus norvegicus, UniProt P20595).
T1 construct: endogenous in cells; host or cells: primary rat aortic smooth muscle cells
T1 sequence (P20595 1-619): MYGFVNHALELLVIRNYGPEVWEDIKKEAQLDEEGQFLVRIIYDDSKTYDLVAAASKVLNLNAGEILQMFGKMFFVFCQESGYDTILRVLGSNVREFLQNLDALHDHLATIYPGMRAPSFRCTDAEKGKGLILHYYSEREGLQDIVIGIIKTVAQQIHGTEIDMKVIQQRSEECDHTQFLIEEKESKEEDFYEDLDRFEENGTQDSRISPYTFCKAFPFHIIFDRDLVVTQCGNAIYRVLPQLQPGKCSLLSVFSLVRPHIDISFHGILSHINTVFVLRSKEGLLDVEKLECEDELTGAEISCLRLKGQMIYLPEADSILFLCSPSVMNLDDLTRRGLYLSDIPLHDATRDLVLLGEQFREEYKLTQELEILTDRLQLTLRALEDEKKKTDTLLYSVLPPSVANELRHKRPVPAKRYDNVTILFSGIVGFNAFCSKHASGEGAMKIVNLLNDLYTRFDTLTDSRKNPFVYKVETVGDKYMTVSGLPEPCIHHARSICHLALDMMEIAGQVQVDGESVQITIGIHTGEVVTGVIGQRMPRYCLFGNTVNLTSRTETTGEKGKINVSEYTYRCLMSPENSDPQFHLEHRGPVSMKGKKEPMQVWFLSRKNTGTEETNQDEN
T1 sequence (P19686 1-690 partner): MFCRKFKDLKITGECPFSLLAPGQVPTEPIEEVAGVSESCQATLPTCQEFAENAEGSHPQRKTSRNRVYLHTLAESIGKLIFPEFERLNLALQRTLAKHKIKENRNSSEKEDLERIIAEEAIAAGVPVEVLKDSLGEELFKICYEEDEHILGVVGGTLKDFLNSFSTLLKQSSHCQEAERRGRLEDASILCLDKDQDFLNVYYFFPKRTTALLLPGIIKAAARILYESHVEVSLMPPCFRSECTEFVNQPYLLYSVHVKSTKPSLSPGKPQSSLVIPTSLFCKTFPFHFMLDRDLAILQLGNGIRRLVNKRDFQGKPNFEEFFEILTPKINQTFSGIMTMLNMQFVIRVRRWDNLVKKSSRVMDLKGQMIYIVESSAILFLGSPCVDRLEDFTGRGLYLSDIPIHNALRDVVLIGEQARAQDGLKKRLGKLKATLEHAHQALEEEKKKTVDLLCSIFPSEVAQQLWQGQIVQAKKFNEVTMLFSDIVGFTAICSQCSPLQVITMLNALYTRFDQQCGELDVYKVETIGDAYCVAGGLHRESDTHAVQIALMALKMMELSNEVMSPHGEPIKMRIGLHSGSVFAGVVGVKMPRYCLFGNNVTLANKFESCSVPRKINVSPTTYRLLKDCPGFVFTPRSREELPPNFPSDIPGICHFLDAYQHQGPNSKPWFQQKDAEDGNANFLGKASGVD
Description: Biological cellular assay: sGC activity by phosphorylation of VASP in rat aortic smooth muscle cells. Format: cell-based. The settings on record: primary rat aortic smooth muscle cells, pre-incubated with 10 μM ODQ, 30 min at 37° C., phospho-VASP (pSer239) fluorescent signal; read-out: Cell assay pEC50 (converted). Here is the method:
The activity of soluble guanylate cyclase (sGC) was tested in an assay based on measuring phosphorylation of the protein kinase G (PKG) substrate vasodilator-stimulated phosphoprotein (VASP) in rat aortic smooth muscle cells. […] Dimethylsulfoxide (DMSO) vehicle and varying concentrations of the compound to be tested were then added. Following a 30 min incubation at 37° C., media was aspirated and the cells were rinsed with phosphate-buffered saline (PBS) and fixed with 4% formaldehyde in PBS by incubating at room temperature for 20 min. Cells were then washed with PBS and permeabilized for 10 min using 0.1% triton X-100 in PBS. Following PBS rinsing, the cells were blocked for 90 min at room temperature with blocking buffer. The buffer was aspirated and the cells were treated overnight at 4° C. with primary antibody (pSer239-VASP, rabbit polyclonal Ab) diluted 1:500 in blocking buffer. Following three washes with 0.05% Tween 20, the cells were treated for 1 h at room temperature with a fluorescent labeled secondary antibody (IRDye® 800CW Donkey Anti-Rabbit IgG) diluted 1:2500 in blocking buffer with 0.05% Tween 20. Following two washes with PBS, infrared fluorescence was measured using an Odyssey Infrared Imaging System. The activity of a test compound was determined as the pEC50 value which is the concentration able to increase by 50% (vs. Bmax) the phospho-VASP fluorescent signal. Front. Pharmacol., 5 Jul. 2012|doi: 10.3389/fphar.2012.00128, Volume 3 July, 2012, Article number 128.

For `Cc1nc(C2CCN(C3CCOC3)CC2)ccc1COc1c(F)cc(F)cc1-c1cccc(N2CCC(C(=O)O)CC2)n1` (stereo not shown) [Example 20, 1-(6-(3,5-difluoro-2-((2-methyl-6-(1-(tetrahydrofuran-3-yl)piperidin-4-yl)pyridin-3-yl)methoxy)phenyl)pyridin-2-yl)piperidine-4-carboxylic acid], the EC50 was 158 nM.
Regarding `Cc1cc(C2CCN(C(=O)CC#N)CC2)ccc1COc1c(F)cc(F)cc1-c1cccc(N2CCC(C(=O)O)CC2)n1` [Example 63, 1-(6-(2-((4-(1-(2-cyanoacetyl)piperidin-4-yl)-2-methylbenzyl)oxy)-3,5-difluorophenyl)pyridin-2-yl)piperidine-4-carboxylic acid, Sodium salt], the EC50 was 0.398 nM.
Take `Cc1cc(C2CCN(C(=O)CC3CCOC3)CC2)ccc1COc1c(F)cc(F)cc1-c1cccc(N2CCC(C(=O)O)CC2)n1` (stereo not shown) [Example 79, 1-(6-(3,5-difluoro-2-((2-methyl-4-(1-(2-(tetrahydrofuran-3-yl)acetyl)piperidin-4-yl)benzyl)oxy)phenyl)pyridin-2-yl)piperidine-4-carboxylic acid, Sodium salt]: the EC50 is 1.26 nM.
Turning to `Cc1cc(C2CCN(C(=O)C3COC3)CC2)ccc1COc1c(F)cc(F)cc1-c1cccc(N2CCC(C(=O)O)CC2)n1` [Example 6, 1-(6-(3,5-difluoro-2-((2-methyl-4-(1-(oxetane-3-carbonyl)piperidin-4-yl)benzyl)oxy)phenyl)pyridin-2yl)piperidine-4-carboxylic acid], the EC50 is 0.1 nM.
